Measured values reported in US12484579B2, “Agrochemical composition and methods of preparing and using the same” (priority 2018, dated 2025).

Experiment: Solubility of Mesotrione in solvents
Format: physicochemical
Text: Mesotrione has been introduced in both Rhodiasolv® Li-Tec 2v and Rhodiasolv® Polarclean. Mesotrione is not soluble in Rhodiasolv® Li-Tec 2v and is soluble in (for instance at concentration of 30 g/L) Rhodiasolv® Polarclean.

## CS(=O)(=O)c1ccc(C(=O)C2C(=O)CCCC2=O)c([N+](=O)[O-])c1 [Mesotrione, 2-(4-methylsulfonyl-2-nitrobenzoyl)-cyclohexane-1,3-dione]
Solvent Rhodiasolv® Li-Tec 2v
  Solubility in Rhodiasolv® Li-Tec 2v: not soluble
Solvent Rhodiasolv® Polarclean, for instance at concentration of 30 g/L
  Solubility in Rhodiasolv® Polarclean: soluble
